# Tested on: KIAA0101 expression in LNCaP cells
# Assay: Expression of KIAA0101 in LNCaP prostate cancer cells treated with casodex
# Assay type: cell-based, human
# Protocol: In order to examine the effect of casodex, an anti-androgen, on the expression of KIAA0101, LNCaP cells (androgen-sensitive prostate cancer cells) were grown to 70% confluence in RPMI-1640 (10% FBS). The cultures were then pretreated for 24 hours in dye-free RPMI-1640 containing 5% charcoal stripped serum. The cultures were then treated with either 1 nM R1881 or 100 […] casodex in RPMI-1640 containing 5% charcoal stripped serum prior to harvesting and extraction of total mRNA for expression analysis.
structure (smiles),measurement,setting,value
CC(O)(CS(=O)(=O)c1ccc(F)cc1)C(=O)Nc1ccc(C#N)c(C(F)(F)F)c1 (centres unmarked) [casodex],decrease (drop) in KIAA0101 expression,"LNCaP cells (androgen-responsive prostate cancer cell line), in the presence of casodex",3 fold
same,KIAA0101 expression lower in the presence of casodex than in the presence of R1881,"LNCaP cells, casodex versus R1881 (androgen agonist, 1 nM)",3 fold

# Reference: patent US6355430B1, “Diagnostic and screening methods employing KIAA0101” (Millennium Pharmaceuticals, Inc., priority 1998, dated 2002)
